“And” between values parts separate entries of the source, which are not always exact repeats. Identical values can stand only once. Like-named read-outs stand apart in the source and are kept apart here. Non-standard residues stand in square brackets, D forms with d. Residues, ends and D or L forms follow the SMILES beside them. *: point of attachment. X4 = CN1C(=C/C=C/C=C/C2=[N+](CCCCCC(=O)NCCCn3cc(COC[C@H]4CC[C@H](CN5C(=O)CC(*)C5=O)CC4)nn3)c3ccc(S(=O)(=O)[O-])cc3C2(C)C)C(C)(C)c2cc(S(=O)(=O)O)ccc21; X2 = N=c1ccc2c(-c3ccc(C(=O)NCCCn4cc(COC[C@H]5CC[C@H](CN6C(=O)CC(*)C6=O)CC5)nn4)cc3C(=O)O)c3ccc(N)c(S(=O)(=O)O)c3oc-2c1S(=O)(=O)O; X5 = COc1cc(/N=N/c2ccc(C)cc2[N+](=O)[O-])c(C)cc1/N=N/c1ccc(N(C)CCCC(=O)NCCn2cc(COC[C@H]3CC[C@H](CN4C(=O)CC(*)C4=O)CC3)nn2)cc1; X3 = O=C(NCCCn1cc(COC[C@H]2CC[C@H](CN3C(=O)CC(*)C3=O)CC2)nn1)c1ccc2c(c1)C(=O)OC21c2ccc(O)cc2Oc2cc(O)ccc21; X7 = C#CCOC[C@H]1CC[C@H](CN2C(=O)CC(*)C2=O)CC1; 1Nal = N[CH](Cc1cccc2ccccc12)C(=O)O; X1 = O=C1NC2CSC(CCCCC(=O)*)C2N1; PEG3 = NCCOCCOCCOCCC(=O)O; Dap = NC[CH](N)C(=O)O
Target: T1, hGOAT (human ghrelin O-acyltransferase) (Homo sapiens, UniProt Q96T53)
T1 construct: made in house; host or cells: Sf9 insect cells (membrane/microsomal fraction)
T1 sequence (Q96T53 1-435): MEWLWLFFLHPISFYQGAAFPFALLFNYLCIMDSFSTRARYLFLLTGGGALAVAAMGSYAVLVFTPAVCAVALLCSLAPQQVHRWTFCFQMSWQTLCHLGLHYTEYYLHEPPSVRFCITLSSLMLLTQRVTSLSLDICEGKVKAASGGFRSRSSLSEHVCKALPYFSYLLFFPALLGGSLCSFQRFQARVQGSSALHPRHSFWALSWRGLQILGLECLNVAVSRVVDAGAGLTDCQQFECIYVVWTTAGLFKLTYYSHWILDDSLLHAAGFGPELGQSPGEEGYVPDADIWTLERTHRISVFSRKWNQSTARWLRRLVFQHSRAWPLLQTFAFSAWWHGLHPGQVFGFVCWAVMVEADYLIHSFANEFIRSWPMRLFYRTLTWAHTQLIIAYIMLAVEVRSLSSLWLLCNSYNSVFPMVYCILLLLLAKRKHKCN
Assay: GOAT ghrelin acylation (octanoylation) inhibition assay, membrane fraction of Sf9 cells expressing hGOAT, HPLC readout
Format: biochemical
Details: for IC50: average of three independent trials; for IC50 relative to parent ligand 5: fold change relative to ligand 5; for change in binding potency with PEG3 linker B compared to linker A: primed ligand (linker B) relative to unprimed ligand (linker A)
Procedure: The microsomal fraction containing hGOAT for the ligand-binding studies by IC50 determination was prepared according to published protocols. For the GOAT inhibition assay, serial dilutions of 0, 0.15, 0.5, 1, 5, 15, and 50 µM concentrations were prepared in 50% acetonitrile for each ligand used. The membrane fractions from the Sf9 cells expressing GOAT were first thawed on ice then passed through an 18-gauge needle 10 times to homogenize them. The assays were performed with approximately 30 µg of the membrane protein as determined through a Bradford assay. The standard reaction conditions contained 50 mM HEPES pH 7.0, 1 µM MAFP, 30 µg of membrane protein, and ultrapure water. The ligands were added to the reaction mixtures and incubated for 30 min at room temperature protected from light prior to the reaction initiation. The reactions were initiated by octanoyl CoA (300 µM final concentration) and GSSFLCAcdan (0.3 µM final concentration) in a total reaction volume of 50 µL. […] The reactions were stopped with 50 µL of 20% acetic acid in isopropanol. The excess membrane fraction was precipitated with 16.7 µL of 40% trichloroacetic acid (TCA) followed by a 1000× g centrifugation for 2 min. The supernatant was then analyzed via reverse-phase HPLC in 100 µL samples as previously described. The inhibition trials were run in triplicate, with the reported IC50 values representing the average of at least three trials. The IC50 values for all LCs are reported in Supplemental Table S2.
The assays were analyzed on reverse-phase HPLC (Zorbax Eclipse XDB column, 4.6 × 150 mm) using a solvent gradient from […] in aqueous 0.05% TFA over 5 min at a flow rate of 1 mL/min, followed by a gradient of […] in 0.05% TFA over 1 min, 100% acetonitrile for 5 min, and a gradient of 100% acetonitrile to 30% acetonitrile in 0.05% TFA for 5 min. The total time for each run was 16 min. The peptides were detected by the attached acrylodan label with the UV absorbance at 360 nm and fluorescence (λex = 360 nm, λem = 485 nm). The octanoylated peptide typically eluted at around 7.5 min, with the unreacted peptide eluting at around 2.5 min. Chemstation for LC (Agilent Technologies) was used for peak integration.
The peak integrations were used to determine the percent conversion in the presence of either the inhibitor (ligand, LC) or the vehicle (50% acetonitrile). The percent activity was calculated using Equation (1):(1) % peptide octanoylationa=fluorescence of octanoylated peptide/total peptide fluorescence,
IC50 values were determined by fitting Equation (2) to the plot of % activity against inhibitor concentration:(2) % activity=% vehicle1−Inhibitor/Inhibitor+IC50
[formula] Scheme 1 The GOAT inhibition assay for determining ligand binding. The octanoylation of a fluorescently labeled ghrelin-mimetic peptide substrate is inhibited by LC binding, with GOAT octanoylation activity and inhibition determined as described in the Section 2.

[1] = ± one standard deviation, read-out: IC50 against hGOAT

| Molecule | IC50 [1] | other results |
| --- | --- | --- |
| CC(C)CC(NC(=O)C(Cc1cccc2ccccc12)NC(=O)C(CN)NC(=O)C(CO)NC(=O)CN)C(=O)NC(CO)C(=O)N1CCCC1C(=O)NC(C(=O)NCCOCCOCCOCCC(=O)NC(CS)C(N)=O)C(C)O (stereo not drawn) [Ligand 3] (H-GS[Dap][1Nal]LSPT[PEG3]C-NH2; configuration not given here) | 0.0289 µM and 0.029 µM | – |
| C#CCOC[C@H]1CC[C@H](CN2C(=O)CC(SC[C@H](NC(=O)CCOCCOCCOCCNC(=O)[C@@H](NC(=O)[C@@H]3CCCN3C(=O)[C@H](CO)NC(=O)[C@H](CC(C)C)NC(=O)[C@H](Cc3cccc4ccccc34)NC(=O)[C@H](CN)NC(=O)[C@H](CO)NC(=O)CN)[C@@H](C)O)C(N)=O)C2=O)CC1 (stereo partly drawn) [Ligand 5, H-GS-Dap-Nal-1-LSPT-Mini-PEG3a-C-Linker] (H-GS[Dap][1Nal]LSPT[PEG3]C(X7)-NH2) | 0.013 ± 0.001 µM | – |
| CC(C)C[C@H](NC(=O)[C@H](Cc1cccc2ccccc12)NC(=O)[C@H](CN)NC(=O)[C@H](CO)NC(=O)CN)C(=O)N[C@@H](CO)C(=O)N1CCC[C@H]1C(=O)N[C@H](C(=O)NCCOCCOCCOCCC(=O)N[C@@H](CCn1cc(COC[C@H]2CC[C@H](CN3C(=O)C=CC3=O)CC2)nn1)C(N)=O)[C@@H](C)O [Ligand 6, H-GS-Dap-Nal-1-LSPT-Mini-PEG3a-AHA-Linker] | 1.05 ± 0.0795 µM | IC50 (apparent IC50, read-out: IC50 against hGOAT): > 1 µM and 1 µM |
| CC(C)C[C@H](NC(=O)[C@H](Cc1cccc2ccccc12)NC(=O)[C@H](CN)NC(=O)[C@H](CO)NC(=O)CN)C(=O)N[C@@H](CO)C(=O)N1CCC[C@H]1C(=O)N[C@H](C(=O)NCCOCCOCCOCCC(=O)N[C@@H](CSC1CC(=O)N(C[C@H]2CC[C@H](COCc3cn(CCCNC(=O)c4ccc(-c5c6ccc(=N)c(S(=O)(=O)O)c-6oc6c(S(=O)(=O)O)c(N)ccc56)c(C(=O)O)c4)nn3)CC2)C1=O)C(N)=O)[C@@H](C)O (stereo partly drawn) [Ligand 7, H-GS-Dap-Nal-1-LSPT-Mini-PEG3a-C-Linker-AF488azide] (H-GS[Dap][1Nal]LSPT[PEG3]C(X2)-NH2) | – | IC50 relative to parent ligand 5: six- to eight-fold higher |
| CC(C)C[C@H](NC(=O)[C@H](Cc1cccc2ccccc12)NC(=O)[C@H](CN)NC(=O)[C@H](CO)NC(=O)CN)C(=O)N[C@@H](CO)C(=O)N1CCC[C@H]1C(=O)N[C@H](C(=O)NCCOCCOCCOCCC(=O)N[C@@H](CSC1CC(=O)N(C[C@H]2CC[C@H](COCc3cn(CCCNC(=O)c4ccc5c(c4)C(=O)OC54c5ccc(O)cc5Oc5cc(O)ccc54)nn3)CC2)C1=O)C(N)=O)[C@@H](C)O (stereo partly drawn) [Ligand 8, H-GS-Dap-Nal-1-LSPT-Mini-PEG3-C-Linker-FAM5azide] (H-GS[Dap][1Nal]LSPT[PEG3]C(X3)-NH2) | 0.0738 ± 0.0048 µM | IC50 relative to parent ligand 5: six- to eight-fold higher |
| CC(C)C[C@H](NC(=O)[C@H](Cc1cccc2ccccc12)NC(=O)[C@H](CN)NC(=O)[C@H](CO)NC(=O)CN)C(=O)N[C@@H](CO)C(=O)N1CCC[C@H]1C(=O)N[C@H](C(=O)NCCOCCOCCOCCC(=O)N[C@@H](CSC1CC(=O)N(C[C@H]2CC[C@H](COCc3cn(CCCNC(=O)CCCCC[N+]4=C(/C=C/C=C/C=C5N(C)c6ccc(S(=O)(=O)O)cc6C5(C)C)C(C)(C)c5cc(S(=O)(=O)[O-])ccc54)nn3)CC2)C1=O)C(N)=O)[C@@H](C)O (stereo partly drawn) [Ligand 9, H-GS-Dap-Nal-1-LSPT-Mini-PEG3a-C-Linker-SulfoCy5azide] (H-GS[Dap][1Nal]LSPT[PEG3]C(X4)-NH2) | 0.0844 ± 0.0115 µM | IC50 relative to parent ligand 5: six- to eight-fold higher |
| COc1cc(/N=N/c2ccc(C)cc2[N+](=O)[O-])c(C)cc1/N=N/c1ccc(N(C)CCCC(=O)NCCn2cc(COC[C@H]3CC[C@H](CN4C(=O)CC(SC[C@H](NC(=O)CCOCCOCCOCCNC(=O)[C@@H](NC(=O)[C@@H]5CCCN5C(=O)[C@H](CO)NC(=O)[C@H](CC(C)C)NC(=O)[C@H](Cc5cccc6ccccc56)NC(=O)[C@H](CN)NC(=O)[C@H](CO)NC(=O)CN)[C@@H](C)O)C(N)=O)C4=O)CC3)nn2)cc1 (stereo partly drawn) [Ligand 12, H-GS-Dap-Nal-1-LSPT-Mini-PEG3-C-Linker-AzoDye1azide] (H-GS[Dap][1Nal]LSPT[PEG3]C(X5)-NH2) | 0.0059 ± 0.0017 µM | – |
| CC(C)CC(NC(=O)C(Cc1cccc2ccccc12)NC(=O)C(CN)NC(=O)C(CO)NC(=O)CN)C(=O)NC(CO)C(=O)N1CCCC1C(=O)NC(C(=O)NCCOCCOCCOCCC(=O)NC(CCCCNC(=O)CCCCC1SCC2NC(=O)NC21)C(N)=O)C(C)O (stereo not drawn) [Ligand 13] (H-GS[Dap][1Nal]LSPT[PEG3]K(X1)-NH2; configuration not given here) | 0.0518 ± 0.0057 µM | – |
| COc1cc2cc(c1Cl)N(C)C(=O)C[C@H](OC(=O)[C@H](C)N(C)C(=O)CCSC1CC(=O)N(C[C@H]3CC[C@H](COCc4cn(CC[C@H](NC(=O)CCOCCOCCOCCNC(=O)[C@@H](NC(=O)[C@@H]5CCCN5C(=O)[C@H](CO)NC(=O)[C@H](CC(C)C)NC(=O)[C@H](Cc5cccc6ccccc56)NC(=O)[C@H](CN)NC(=O)[C@H](CO)NC(=O)CN)[C@@H](C)O)C(N)=O)nn4)CC3)C1=O)[C@]1(C)O[C@H]1[C@H](C)[C@@H]1C[C@@](O)(NC(=O)O1)[C@H](OC)/C=C/C=C(\C)C2 (stereo partly drawn) [Ligand 14, H-GS-Dap-Nal-1-LSPT-Mini-PEG3a-AHA-Linker-Mertansine] | – | IC50 (IC50 against hGOAT, ± one standard deviation): 0.0188 µM and ~0.02 µM |
| CC(C)C[C@H](NC(=O)[C@H](Cc1cccc2ccccc12)NC(=O)[C@H](CN)NC(=O)[C@H](CO)NC(=O)CN)C(=O)N[C@@H](CO)C(=O)N1CCC[C@H]1C(=O)N[C@H](C(=O)NCCOCCOCCOCCC(=O)N[C@@H](CSC1CC(=O)N(CCNC(=O)CCCCC[N+]2=C(/C=C/C=C/C=C3N(C)c4ccc(S(=O)(=O)O)cc4C3(C)C)C(C)(C)c3cc(S(=O)(=O)[O-])ccc32)C1=O)C(N)=O)[C@@H](C)O (stereo partly drawn) [Ligand 16] | 0.0568 ± 0.0086 µM | – |
| COc1cc(/N=N/c2ccc(C)cc2[N+](=O)[O-])c(C)cc1/N=N/c1ccc(N(C)CCCC(=O)NCc2cn(CC[C@H](NC(=O)CCOCCOCCOCCNC(=O)[C@@H](NC(=O)[C@@H]3CCCN3C(=O)[C@H](CO)NC(=O)[C@H](CC(C)C)NC(=O)[C@H](Cc3cccc4ccccc34)NC(=O)[C@H](CN)NC(=O)[C@H](CO)NC(=O)CN)[C@@H](C)O)C(N)=O)nn2)cc1 [Ligand 17, H-GS-Dap-Nal-1-LSPT-Mini-PEG3a-AHA-AzoDye1alkyne] | 0.0039 ± 0.0004 µM | – |
| H-GS-Dap-Nal-1-LSPT-Mini-PEG3a-C-Linker-TideQuencher2azide [Ligand 11] | 0.0257 ± 0.0062 µM | IC50 relative to parent ligand 5: approximately two-fold higher |
| H-GS-Dap-Nal-1-LSPT-Mini-PEG3b-C-NH2 [Ligand 3’] | – | change in binding potency with PEG3 linker B compared to linker A: approximately four-fold drop |
| H-GS-Dap-Nal-1-LSPT-Mini-PEG3b-C-SulfoCy5maleimide [Ligand 16’] | – | change in binding potency with PEG3 linker B compared to linker A: approximately two-fold increase |

Source: publication PMC11852496, “A Modular Customizable Ligand-Conjugate (LC) System Targeting Ghrelin O-Acyltransferase” (Biomolecules, 2025)
